Measurements from PubChem BioAssay AID1918994 (Molecular Pharmacology Branch, DTP, NCI, 2023).

Tested on: 292921-168-R-J2-PDC complex spheroid growth
Assay: Anticancer human tumor 292921-168-R-J2-PDC patient-derived pancreatic carcinoma cell line growth inhibition [AhR]
Conditions: for IC50: curve of first compound; for viability, T/C: stronger effect = lower value
Procedure, shortened: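 Spheroids combined tumor cells with HUVEC endothelial cells and human MSCs as stroma. AhR antagonists were paired with standard or investigational drugs, each dosed in half-log steps down from near clinical Cmax, or from 10 microM where Cmax was unknown.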

[1] = second compound 0.1 µM, first compound 0.0316 µM
[2] = second compound 0.1 µM, first compound 0.1 µM
[3] = second compound 0.1 µM, first compound 0.316 µM
[4] = second compound 0.1 µM, first compound 1 µM
[5] = second compound 0.1 µM, first compound 3.16 µM
[6] = second compound 0.1 µM, first compound 10 µM
[7] = second compound 0.316 µM, first compound 0.0316 µM
[8] = second compound 0.316 µM, first compound 0.1 µM
[9] = second compound 0.316 µM, first compound 0.316 µM
[10] = second compound 0.316 µM, first compound 1 µM
[11] = second compound 0.316 µM, first compound 3.16 µM
[12] = second compound 0.316 µM, first compound 10 µM
[13] = second compound 1 µM, first compound 0.0316 µM
[14] = second compound 1 µM, first compound 0.1 µM
[15] = second compound 1 µM, first compound 0.316 µM
[16] = second compound 1 µM, first compound 1 µM
[17] = second compound 1 µM, first compound 3.16 µM
[18] = second compound 1 µM, first compound 10 µM
[19] = second compound 3.16 µM, first compound 0.0316 µM
[20] = second compound 3.16 µM, first compound 0.1 µM
[21] = second compound 3.16 µM, first compound 0.316 µM
[22] = second compound 3.16 µM, first compound 1 µM
[23] = second compound 3.16 µM, first compound 3.16 µM
[24] = second compound 3.16 µM, first compound 10 µM
[25] = second compound 10 µM, first compound 0.0316 µM
[26] = second compound 10 µM, first compound 0.1 µM
[27] = second compound 10 µM, first compound 0.316 µM
[28] = second compound 10 µM, first compound 1 µM
[29] = second compound 10 µM, first compound 3.16 µM
[30] = second compound 10 µM, first compound 10 µM
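Note: spheroids exposed to compounds for seven days after three days of growth.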

Compound | IC50 (second compound 0.1 µM) [nM] | IC50 (second compound 0.316 µM) [nM] | IC50 (second compound 1 µM) [nM] | IC50 (second compound 3.16 µM) [nM] | IC50 (second compound 10 µM) [nM] | viability, T/C [1] [%] | viability, T/C [2] [%] | viability, T/C [3] [%] | viability, T/C [4] [%] | viability, T/C [7] [%] | viability, T/C [8] [%] | viability, T/C [9] [%] | viability, T/C [10] [%] | viability, T/C [13] [%] | viability, T/C [14] [%] | viability, T/C [15] [%] | viability, T/C [16] [%] | viability, T/C [19] [%] | viability, T/C [20] [%] | viability, T/C [21] [%] | further results
CC(C)c1c(-c2ccccc2)nc2c(C#N)c[nH]n2c1=O + CC(CO)NC(=O)c1cc(-c2ccc(Cl)cc2)nn(-c2cnn(C)c2)c1=O | > 10000 | > 10000 | > 10000 | > 10000 | > 10000 | 104 | 105 | 104 | 105 | 103 | 102 | 99.6 | 96 | 109 | 102 | 104 | 97.1 | 86.8 | 91.9 | 94.1 | viability, T/C [5]: 109%; viability, T/C [6]: 101%; viability, T/C [11]: 101%; viability, T/C [12]: 89.5%; viability, T/C [17]: 94.9%; viability, T/C [18]: 99.6%; viability, T/C [22]: 89.8%; viability, T/C [23]: 80.8%; viability, T/C [24]: 84.2%; viability, T/C [25]: 69.7%; viability, T/C [26]: 67.3%; viability, T/C [27]: 71.2%; viability, T/C [28]: 63.8%; viability, T/C [29]: 62.6%; viability, T/C [30]: 68.5%
CC1COCCN1c1cc(-c2ccnn2C)c2ccnc(-c3ccn[nH]3)c2n1 (stereo not given) + CC(CO)NC(=O)c1cc(-c2ccc(Cl)cc2)nn(-c2cnn(C)c2)c1=O | 43.3 | 46.4 | 33 | 27.9 | 10.3 | 56.1 | 31.4 | 22.7 | 19.7 | 56.6 | 35.3 | 22 | 17.8 | 49 | 29.1 | 21.5 | 17.3 | 46.9 | 24.9 | 17.7 | viability, T/C (second compound 0.1 µM, first compound 0.00316 µM): 93.5%; viability, T/C (second compound 0.1 µM, first compound 0.01 µM): 91%; viability, T/C (second compound 0.316 µM, first compound 0.00316 µM): 96.8%; viability, T/C (second compound 0.316 µM, first compound 0.01 µM): 84.1%; viability, T/C (second compound 1 µM, first compound 0.00316 µM): 100%; viability, T/C (second compound 1 µM, first compound 0.01 µM): 90.8%; viability, T/C (second compound 3.16 µM, first compound 0.00316 µM): 86.6%; viability, T/C (second compound 3.16 µM, first compound 0.01 µM): 75.2%; viability, T/C [22]: 17.1%; viability, T/C (second compound 10 µM, first compound 0.00316 µM): 62.8%; viability, T/C (second compound 10 µM, first compound 0.01 µM): 51%; viability, T/C [25]: 26.8%; viability, T/C [26]: 19.7%; viability, T/C [27]: 15.3%; viability, T/C [28]: 15.8%
COc1ccc([C@@H](O)c2cc(-c3ncnc4cc(N5CCOCC5)ccc34)c(F)cc2Cl)nn1 + CC(CO)NC(=O)c1cc(-c2ccc(Cl)cc2)nn(-c2cnn(C)c2)c1=O | 1810 | 1820 | 1910 | 1320 | 1060 | 94.5 | 97.8 | 86.6 | 59.1 | 101 | 95.1 | 87 | 60.5 | 102 | 98.9 | 78.4 | 61.4 | 85.8 | 82.6 | 78.6 | viability, T/C [5]: 41.9%; viability, T/C [6]: 25.1%; viability, T/C [11]: 39.9%; viability, T/C [12]: 24.7%; viability, T/C [17]: 42.2%; viability, T/C [18]: 28.1%; viability, T/C [22]: 52.9%; viability, T/C [23]: 36%; viability, T/C [24]: 24.3%; viability, T/C [25]: 68%; viability, T/C [26]: 77.1%; viability, T/C [27]: 68.9%; viability, T/C [28]: 49.9%; viability, T/C [29]: 31.9%; viability, T/C [30]: 23.2%
